Like-named read-outs stand apart in the source and are kept apart here.
How the values were obtained:
[1] = target: T1, aryl hydrocarbon receptor (AhR) (Homo sapiens, UniProt P35869); assay: AhR/XRE-dependent luciferase reporter gene assay in XRE-HepG2 cells; assay type: cell-based; conditions: for EC50: 8 h; for AhR-dependent reporter gene activity on co-treatment with BaP: preliminary data
T1 construct: AhR-dependent reporter gene activity was determined in human HepG2 cells stably transfected with an XRE; endogenous in cells; host or cells: XRE-HepG2 (human HepG2 hepatoma cells stably carrying an XRE-luciferase plasmid)
T1 sequence (P35869 11-848): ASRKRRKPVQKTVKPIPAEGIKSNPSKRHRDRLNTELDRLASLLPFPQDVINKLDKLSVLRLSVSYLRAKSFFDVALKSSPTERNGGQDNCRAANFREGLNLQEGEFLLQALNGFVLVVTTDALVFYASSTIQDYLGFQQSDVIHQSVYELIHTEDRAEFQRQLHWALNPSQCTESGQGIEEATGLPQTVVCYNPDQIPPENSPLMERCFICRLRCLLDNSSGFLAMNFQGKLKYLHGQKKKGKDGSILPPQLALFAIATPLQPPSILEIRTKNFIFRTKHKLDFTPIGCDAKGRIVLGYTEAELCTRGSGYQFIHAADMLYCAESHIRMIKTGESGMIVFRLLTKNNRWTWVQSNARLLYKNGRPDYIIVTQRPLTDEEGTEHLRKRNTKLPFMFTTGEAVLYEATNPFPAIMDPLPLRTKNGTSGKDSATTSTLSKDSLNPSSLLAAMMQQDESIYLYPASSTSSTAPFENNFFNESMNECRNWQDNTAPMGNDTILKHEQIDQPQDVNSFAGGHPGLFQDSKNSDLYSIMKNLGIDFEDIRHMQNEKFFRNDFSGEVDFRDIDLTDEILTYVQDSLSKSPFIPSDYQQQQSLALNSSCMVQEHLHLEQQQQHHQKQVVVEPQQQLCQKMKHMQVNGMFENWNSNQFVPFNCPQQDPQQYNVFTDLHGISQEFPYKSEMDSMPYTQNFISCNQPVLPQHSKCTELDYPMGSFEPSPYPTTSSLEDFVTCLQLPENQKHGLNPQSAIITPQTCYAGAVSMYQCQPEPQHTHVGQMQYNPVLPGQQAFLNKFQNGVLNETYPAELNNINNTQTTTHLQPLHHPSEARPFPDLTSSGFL

HaCaT cells = assay: UVA phototoxicity, caspase 3 activity in HaCaT cells; assay type: cell-based, human; conditions: HaCaT, 1 h, UVA 5 J/cm2
Description: Irradiation with UVA and caspase 3 activity measurement […]
culture media was exchanged with PBS and the cells were sham or UVA (5 J/cm2) irradiated using the BS-02 irradiation chamber (Opsytec Dr. Gröbel, Ettlingen Germany). Media was added to the cells and after 4 h incubation, caspase 3 activity was measured as described previously.[33] Protein quantification was done with the Bio-Rad DC protein assay kit (Bio-Rad Laboratories, Hercules, CA) according to the manufacturer protocol.
We compared the phototoxic potential of five of our test compounds (8, 10, 5b, 5h, 4b) as well as the FDA-approved AhR activator […]
induced caspase activity at a concentration of 100 nM (Figure S36A). At a 10-fold higher concentration (1 µM) two of the test compounds […]
Figure S36. […] For statistical analysis a two-way ANOVA (Tukey post-hoc) was performed and data are shown as mean ± SEM. (*, p ≤ 0.05). […]

[2] = Solubility in the growing media during cytotoxicity testing; assay type: physicochemical; conditions: concentration of 100 µM
Description: A phosphatidylserine exposure was used to determine cell viability. Cells were washed with PBS, pelleted, and then incubated with annexin binding buffer containing Annexin V-APC (Life Technologies) for 15 min in the dark. Then, samples were analyzed by flow cytometry using FACSCanto II and FACSDiva (BD Biosciences, Franklin Lakes, NJ, USA). Data represents the percentage of non - apoptotic cells (Ann -APC-).
The cytotoxicity of a selection of the synthesized compounds was assessed after 24 hours of treatment in two human cell lines, Jurkat and HEK293T, coming from either tumoral T-cell lymphocytes or non-tumoral embryonic kidney fibroblasts, respectively. […]
the pro-apoptotic activity was not significant below 10 µM for most compounds in both cell lines, except for 5i, 5k and 5l in both cell lines, as well as 9a in Jurkat and 5e HEK293T cells (Figure S35A-B).
Moreover, the cytotoxicity of compounds 4d, 5b, 5h, 8, 10, and 12d at a higher concentration (100 µM) was assessed in both cell lines, Jurkat and HEK293T. The cytotoxicity of compounds 5b, 5h, and 12d could not be properly tested as the compounds were not soluble […]
effects observed for compound 4d in Jurkat cells and compound 8 in HEK293T cells (Figure S35C).
Figure S35. A) Jurkat and B) HEK293T cells were treated with 1 and 10 µM doses of the corresponding compound for 24 hours. Indicated doses of fluorizoline were used as a positive control of cell death. C) Jurkat and HEK293T cells were treated with 100 µM of the corresponding compound for 24 hours. Viability was measured by flow cytometry, and it is expressed as the mean ± SEM (n = 3) of the percentage of non -apoptotic cells (Ann-APC-). * p < 0.05, ** p < 0.01 *** p < […]
(1 picture or pasted object on this page, not shown here)

[3] = XRE-HepG2 cells, unit as in the supplements, read-out: AhR/XRE-dependent luciferase activity EC50
[4] = XRE-HepG2 hepatoma cells, luciferase activity, read-out: AhR/XRE-dependent reporter gene activity (EC50)

| EC50 [1, 3] [nM] | Compound | other results |
| --- | --- | --- |
| 2250 | CC1(C)CC(=O)C(c2c3[nH]c4ccccc4c3cc3[nH]c4ccccc4c23)=C(O)C1 [4a] |  |
| > 10000 | O=C1OCC(O)=C1c1c2[nH]c3ccccc3c2cc2[nH]c3ccccc3c12 [4b] | AhR-dependent reporter gene activity on co-treatment with BaP [1]: synergistic effects; UVA radiation-induced caspase activity (phototoxicity) (HaCaT cells; 100 nM): neither tapinarof nor our 6-ICZ compounds enhanced; UVA radiation-induced caspase activity (phototoxicity) (HaCaT cells; 1 µM): did not show any signs of phototoxicity |
| 4510 | O=c1oc2ccccc2c(O)c1-c1c2[nH]c3ccccc3c2cc2[nH]c3ccccc3c12 [4c] |  |
| 940 | Brc1ccc2[nH]cc(-c3c4[nH]c5ccccc5c4cc4[nH]c5ccccc5c34)c2c1 [5b] | solubility in the growing media [2]: not soluble; UVA radiation-induced caspase activity (phototoxicity) (HaCaT cells; 100 nM): neither tapinarof nor our 6-ICZ compounds enhanced; UVA radiation-induced caspase activity (phototoxicity) (HaCaT cells; 1 µM): exhibited similar effects to FICZ |
|  | c1ccc2c(-c3c4[nH]c5ccccc5c4cc4[nH]c5ccccc5c34)c[nH]c2c1 [5c] | EC50 [1, 4]: 360 nM |
| 1170 | c1ccc(-c2[nH]c3ccccc3c2-c2c3[nH]c4ccccc4c3cc3[nH]c4ccccc4c23)cc1 [5f] |  |
| 1820 | OCc1[nH]c2ccccc2c1-c1c2[nH]c3ccccc3c2cc2[nH]c3ccccc3c12 [5g] |  |
| 570 | Cc1cccc2[nH]cc(-c3c4[nH]c5ccccc5c4cc4[nH]c5ccccc5c34)c12 [5h] | solubility in the growing media [2]: not soluble; UVA radiation-induced caspase activity (phototoxicity) (HaCaT cells; 100 nM): neither tapinarof nor our 6-ICZ compounds enhanced |
| 450 | Cc1cccc2c(-c3c4[nH]c5ccccc5c4cc4[nH]c5ccccc5c34)c[nH]c12 [5i] |  |
| 1200 | Cc1[nH]c2ccccc2c1-c1c2c3ccccc3n(C)c2cc2c3ccccc3n(C)c12 [5j] | reduction of activity compared to N,N′-H analog 5e ([1]; from reporter gene EC50 values): 2.3 fold |
| 630 | COc1ccc2[nH]c3c(-c4c(C)[nH]c5ccccc45)c4c(cc3c2c1)[nH]c1ccc(OC)cc14 [5l] |  |
| > 10000 | O=C(O)c1ccc2c(-c3c4[nH]c5ccccc5c4cc4[nH]c5ccccc5c34)c[nH]c2c1 [5m] |  |
| 100 | CS(=O)(=O)Nc1ccc(-c2ccc3[nH]cc(-c4c5[nH]c6ccccc6c5cc5[nH]c6ccccc6c45)c3c2)cc1 [9a] |  |
| > 10000 | Cc1ccc(C#Cc2ccc3[nH]cc(-c4c5[nH]c6ccccc6c5cc5[nH]c6ccccc6c45)c3c2)cc1 [9b] | AhR-dependent reporter gene activity on co-treatment with BaP [1]: synergistic effects |
|  | CCCCCNC(=O)c1ccc2c(-c3c4[nH]c5ccccc5c4cc4[nH]c5ccccc5c34)c[nH]c2c1 [12a] | EC50 [1, 4]: 400 nM |
| 6060 | O=C(NCCCCCCCCCCNC(=O)c1ccc2c(-c3c4[nH]c5ccccc5c4cc4[nH]c5ccccc5c34)c[nH]c2c1)c1ccc2c(-c3c4[nH]c5ccccc5c4cc4[nH]c5ccccc5c34)c[nH]c2c1 [12c] |  |
| > 10000 | O=C(NCCCOCCOCCOCCCNC(=O)c1ccc2c(-c3c4[nH]c5ccccc5c4cc4[nH]c5ccccc5c34)c[nH]c2c1)c1ccc2c(-c3c4[nH]c5ccccc5c4cc4[nH]c5ccccc5c34)c[nH]c2c1 [12d] | solubility in the growing media [2]: not soluble |
|  | CC(C)c1c(O)cc(/C=C/c2ccccc2)cc1O [Tapinarof, tapinarof, reference compound] | UVA radiation-induced caspase activity (phototoxicity) (HaCaT cells; 100 nM): neither tapinarof nor our 6-ICZ compounds enhanced; UVA radiation-induced caspase activity (phototoxicity) (HaCaT cells; 1 µM): did not show any signs of phototoxicity |

| Compound | EC50 [1, 3] [nM] | other results |
| --- | --- | --- |
| Clc1cc2c(cc1Cl)Oc1cc(Cl)c(Cl)cc1O2 [TCDD, 2,3,7,8-tetrachlorodibenzodioxin, reference compound] | 3 |  |
